From ChEMBL document CHEMBL3875146, “Mycobacterium Tuberculosis (MTB) GyrB inhibitors: An attractive approach for developing novel drugs against TB” (Eur J Med Chem, 2016)
≈ marks a conversion by molar mass, not a printed value.

Key:
[1] = target: DNA gyrase subunit A/DNA gyrase subunit B (Mycobacterium tuberculosis (strain ATCC 25618 / H37Rv), UniProt P9WG45+P9WG47); test: Inhibition of Mycobacterium tuberculosis DNA gyrase assessed as inhibition of DNA supercoiling activity using relaxed pBR322 as substrate incubated for 30 mins by ethidium bromide staining based agarose gel electrophoresis
[2] = tested on: Mycobacterium tuberculosis; test: Antimycobacterial activity against Mycobacterium tuberculosis incubated for 7 days by alamar blue assay; type: functional; conditions: 168 h
[3] = Cytotoxicity against mouse RAW264.7 cells assessed as inhibition of cell viability at 100 uM measured after 48 hrs by MTT assay relative to control; type: toxicity; conditions: read-out: INH
[4] = Cytotoxicity against mouse RAW264.7 cells assessed as inhibition of cell viability at 100 uM measured after 72 hrs by MTT assay relative to control; type: toxicity; conditions: read-out: INH
[5] = target: DNA gyrase subunit B (Mycobacterium smegmatis, UniProt P0C559); test: Inhibition of Mycobacterium smegmatis DNA gyrase B expressed in BL21(DE3)pLysS cells assessed as inhibition of […] activity in presence of ATP measured after 30 mins by malachite green dye based assay; type: cell-based, Mycolicibacterium smegmatis
Chain of DNA gyrase subunit B (P0C559 whole entry): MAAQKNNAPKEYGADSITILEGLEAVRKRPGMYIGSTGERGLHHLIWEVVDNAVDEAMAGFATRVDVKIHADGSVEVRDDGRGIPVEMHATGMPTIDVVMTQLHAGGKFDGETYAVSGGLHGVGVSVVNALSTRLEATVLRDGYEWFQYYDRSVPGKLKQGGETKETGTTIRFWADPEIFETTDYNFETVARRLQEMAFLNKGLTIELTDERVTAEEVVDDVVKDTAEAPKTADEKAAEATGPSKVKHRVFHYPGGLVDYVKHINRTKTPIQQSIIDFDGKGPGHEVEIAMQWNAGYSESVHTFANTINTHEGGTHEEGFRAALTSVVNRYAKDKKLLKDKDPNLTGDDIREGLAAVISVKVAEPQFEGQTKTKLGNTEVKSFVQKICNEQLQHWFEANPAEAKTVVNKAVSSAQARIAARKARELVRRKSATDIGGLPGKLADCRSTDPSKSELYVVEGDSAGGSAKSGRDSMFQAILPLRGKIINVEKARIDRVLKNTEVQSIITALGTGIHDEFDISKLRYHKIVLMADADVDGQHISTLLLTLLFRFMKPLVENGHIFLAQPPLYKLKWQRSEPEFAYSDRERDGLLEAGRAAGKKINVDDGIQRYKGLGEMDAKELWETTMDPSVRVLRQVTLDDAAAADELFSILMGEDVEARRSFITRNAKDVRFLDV

Chain of DNA gyrase subunit A/DNA gyrase subunit B (P9WG45 whole entry): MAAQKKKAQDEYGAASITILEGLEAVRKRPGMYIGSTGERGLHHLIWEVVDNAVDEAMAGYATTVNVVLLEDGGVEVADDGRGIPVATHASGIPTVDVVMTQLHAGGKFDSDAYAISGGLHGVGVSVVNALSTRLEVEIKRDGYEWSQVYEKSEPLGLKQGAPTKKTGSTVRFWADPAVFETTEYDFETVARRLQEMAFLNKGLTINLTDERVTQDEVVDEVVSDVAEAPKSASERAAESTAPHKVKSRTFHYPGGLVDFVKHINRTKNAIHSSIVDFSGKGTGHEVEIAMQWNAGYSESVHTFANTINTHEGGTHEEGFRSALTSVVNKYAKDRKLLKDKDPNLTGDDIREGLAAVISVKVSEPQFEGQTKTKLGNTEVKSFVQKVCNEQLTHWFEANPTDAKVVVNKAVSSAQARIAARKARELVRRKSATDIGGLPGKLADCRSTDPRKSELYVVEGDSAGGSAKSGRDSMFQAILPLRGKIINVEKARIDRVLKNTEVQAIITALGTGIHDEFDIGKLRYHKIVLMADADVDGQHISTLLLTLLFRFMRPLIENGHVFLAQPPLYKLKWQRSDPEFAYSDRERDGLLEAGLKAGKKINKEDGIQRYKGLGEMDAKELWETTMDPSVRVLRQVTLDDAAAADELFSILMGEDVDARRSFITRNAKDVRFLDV
Chain of DNA gyrase subunit A/DNA gyrase subunit B (P9WG47 whole entry): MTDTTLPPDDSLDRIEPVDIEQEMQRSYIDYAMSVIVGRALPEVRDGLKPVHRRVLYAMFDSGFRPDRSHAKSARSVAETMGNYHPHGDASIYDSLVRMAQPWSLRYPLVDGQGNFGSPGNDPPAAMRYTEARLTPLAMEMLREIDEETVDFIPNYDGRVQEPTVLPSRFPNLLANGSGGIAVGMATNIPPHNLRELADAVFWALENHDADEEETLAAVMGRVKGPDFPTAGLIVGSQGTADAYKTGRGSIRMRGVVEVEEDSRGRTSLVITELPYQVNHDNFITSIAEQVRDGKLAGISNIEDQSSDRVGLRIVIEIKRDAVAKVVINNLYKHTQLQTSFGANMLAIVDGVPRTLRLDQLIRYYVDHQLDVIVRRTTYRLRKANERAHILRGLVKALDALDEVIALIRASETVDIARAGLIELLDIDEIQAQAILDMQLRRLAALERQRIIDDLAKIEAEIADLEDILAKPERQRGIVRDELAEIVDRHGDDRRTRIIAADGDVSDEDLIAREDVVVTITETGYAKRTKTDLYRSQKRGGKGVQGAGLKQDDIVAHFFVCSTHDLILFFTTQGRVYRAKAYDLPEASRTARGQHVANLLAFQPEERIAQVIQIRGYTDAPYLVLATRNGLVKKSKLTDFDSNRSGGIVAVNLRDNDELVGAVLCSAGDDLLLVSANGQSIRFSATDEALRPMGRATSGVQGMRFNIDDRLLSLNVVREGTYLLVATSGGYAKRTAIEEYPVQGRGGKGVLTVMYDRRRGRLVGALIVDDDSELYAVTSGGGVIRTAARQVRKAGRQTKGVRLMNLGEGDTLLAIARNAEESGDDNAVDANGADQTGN

Row | SMILES | IC50 [1] | MIC [2] | cytotoxicity at 48 h, 100 µM [3] | cytotoxicity at 72 h, 100 µM [4] | IC50 [5]
1 | Cc1ccc(CN2CCN(c3nc(=O)c4cc(C(F)(F)F)ccc4s3)CC2)cc1 | 11.6 µM | 16.7 µM (≈ 7.02 µg/mL) | 18.6% |  | 
2 | O=C1C(=O)N(CCN2CCN(NCc3ccc(Cl)cc3Cl)CC2)c2ccc(Cl)cc21 | 50 µM |  |  | 24% | 68 µM
3 | O=c1nc(N2CCN(Cc3ccccc3)CC2)sc2ccc(C(F)(F)F)cc12 | 11.5 µM | 15.4 µM (≈ 6.25 µg/mL) |  |  | 
4 | Cc1ccc(NC(=S)N2CCN(c3nc(=O)c4cc([N+](=O)[O-])ccc4s3)CC2)cc1 | 0.82 µM | 2.83 µM (≈ 1.25 µg/mL) | 4.22% |  | 
5 | O=C(Nc1ccc([N+](=O)[O-])cc1)N1CCN(c2nc(=O)c3cc([N+](=O)[O-])ccc3s2)CC1 | 9.11 µM | 13.7 µM (≈ 6.24 µg/mL) | 15.2% |  | 
6 | O=c1nc(N2CCN(Cc3ccc(Cl)cc3)CC2)sc2ccc(C(F)(F)F)cc12 | 3.86 µM | 6.31 µM (≈ 2.78 µg/mL) | 8.45% |  | 
7 | COc1ccc2c(c1)C(=O)C(=O)N2CCN1CCN(NCc2ccc([N+](=O)[O-])o2)CC1 | > 50 µM |  |  | 31.6% | 
8 | O=C1C(=O)N(CCN2CCN(NCc3ccccc3F)CC2)c2ccc(Cl)cc21 | > 50 µM |  |  | 17.6% | 
9 | O=c1nc(N2CCN(C(=S)Nc3ccccc3)CC2)sc2ccc([N+](=O)[O-])cc12 | 0.77 µM | 1.82 µM (≈ 0.778 µg/mL) | 3.25% |  | 
10 | O=c1nc(N2CCN(C(=S)Nc3ccc([N+](=O)[O-])cc3)CC2)sc2ccc([N+](=O)[O-])cc12 | 2.59 µM | 5.29 µM (≈ 2.5 µg/mL) | 2.21% |  | 
11 | O=c1nc(N2CCN(Cc3ccccc3)CC2)sc2ccc([N+](=O)[O-])cc12 | 3.21 µM | 4.08 µM (≈ 1.56 µg/mL) | 5.41% |  | 
12 | Cc1ccc(NC(=S)N2CCN(c3nc(=O)c4cc(Cl)ccc4s3)CC2)cc1 | 11.6 µM | 14.5 µM (≈ 6.25 µg/mL) | 2.48% |  | 
13 | O=C(Nc1ccc(Cl)cc1)N1CCN(c2nc(=O)c3cc([N+](=O)[O-])ccc3s2)CC1 | 23.7 µM | 28 µM (≈ 12.5 µg/mL) |  |  | 
14 | O=c1nc(N2CCN(C(=S)Nc3ccc([N+](=O)[O-])cc3)CC2)sc2ccc(Cl)cc12 | 6.23 µM | 13.5 µM (≈ 6.25 µg/mL) | 1.45% |  | 
15 | O=C(Nc1ccc(Cl)cc1)N1CCN(c2nc(=O)c3cc(C(F)(F)F)ccc3s2)CC1 | 10.5 µM | 13.3 µM (≈ 6.25 µg/mL) | 10.2% |  | 
16 | Cc1ccc(CN2CCN(c3nc(=O)c4cc([N+](=O)[O-])ccc4s3)CC2)cc1 | 8.93 µM | 15.8 µM (≈ 6.25 µg/mL) | 26.5% |  | 

Row | SMILES | IC50 [1] | MIC [2] | cytotoxicity at 48 h, 100 µM [3] | cytotoxicity at 72 h, 100 µM [4] | IC50 [5]
17 | O=c1nc(N2CCN(Cc3ccc(Cl)cc3)CC2)sc2ccc(Cl)cc12 | 12.1 µM | 15.4 µM (≈ 6.25 µg/mL) | 5.36% |  | 
18 | Cc1ccc(NC(=S)N2CCN(c3nc(=O)c4cc(C(F)(F)F)ccc4s3)CC2)cc1 | 4.51 µM | 9.54 µM (≈ 4.43 µg/mL) | 16.4% |  | 
19 | O=C(Nc1ccc([N+](=O)[O-])cc1)N1CCN(c2nc(=O)c3cc(C(F)(F)F)ccc3s2)CC1 | 26.5 µM | 52.1 µM (≈ 25 µg/mL) |  |  | 
20 | O=c1nc(N2CCN(C(=S)Nc3ccc(Cl)cc3)CC2)sc2ccc([N+](=O)[O-])cc12 | 0.51 µM | 4.41 µM (≈ 2.04 µg/mL) | 1.81% |  | 
21 | O=c1nc(N2CCN(Cc3ccc([N+](=O)[O-])cc3)CC2)sc2ccc(Cl)cc12 | 7.33 µM | 15 µM (≈ 6.25 µg/mL) | 5.48% |  | 
22 | O=C(Nc1ccc([N+](=O)[O-])cc1)N1CCN(c2nc(=O)c3cc(Cl)ccc3s2)CC1 | 4.61 µM | 5.24 µM (≈ 2.34 µg/mL) | 3.56% |  | 
23 | O=c1nc(N2CCN(C(=S)Nc3ccccc3)CC2)sc2ccc(Cl)cc12 | 10.9 µM | 11.2 µM (≈ 4.68 µg/mL) | 2.35% |  | 
24 | O=c1nc(N2CCN(Cc3ccc(Cl)cc3)CC2)sc2ccc([N+](=O)[O-])cc12 | 3.68 µM | 5.99 µM (≈ 2.5 µg/mL) | 1.56% |  | 
25 | Cc1ccc2c(c1)C(=O)C(=O)N2CCN1CCN(NCc2ccccc2)CC1 | > 50 µM |  |  | 19.7% | 
26 | COc1ccccc1CNN1CCN(CCN2C(=O)C(=O)c3cc(F)ccc32)CC1 | > 50 µM |  |  | 19.1% | 
27 | O=c1nc(N2CCN(C(=S)Nc3ccc(Cl)cc3)CC2)sc2ccc(Cl)cc12 | 6.86 µM | 6.92 µM (≈ 3.12 µg/mL) | 25.6% |  | 
28 | Cc1ccc(NC(=O)N2CCN(c3nc(=O)c4cc(C(F)(F)F)ccc4s3)CC2)cc1 | 5.26 µM | 11.5 µM (≈ 5.18 µg/mL) | 7.56% |  | 
29 | O=C1C(=O)N(CCN2CCN(NCc3ccccc3)CC2)c2ccccc21 | > 50 µM |  |  | 7.6% | 
30 | COc1ccccc1CNN1CCN(CCN2C(=O)C(=O)c3ccccc32)CC1 | > 50 µM |  |  | 21.3% | 
31 | O=C1C(=O)N(CCN2CCN(NCc3cccc(Cl)c3Cl)CC2)c2ccc(F)cc21 | > 50 µM |  |  | 31.2% | 
